Laboratory results taken from US5612329A (priority 1995, dated 1997).

How the values were obtained:
Format in all cases: cell-based
SF-539 cells = experiment: In vitro cytotoxicity / cell growth inhibition, CNS cancer; details: Homo sapiens; SF-539, CNS cancer, 48 hr; read-out: log10 G150 (converted)
Description: (§1) The anti-proliferative activities of the aziridinylpolyamines obtained in Synthesis Examples 1-4 were assessed by determining log10 G150 values against human cancer cell lines using the screening strategy described by Boyd et al, Drug Devel. Res. 34:91-109 (1995).
(§2) More specifically, the compounds were tested at a minimum of five concentrations at 10-fold dilutions using a 48 hr continuous exposure protocol. Each cell line shown in Table 1 below was inoculated onto microtiter plates. After a pre-incubation period of 24-48 hr at 37° C., the test compounds were added, and the culture was incubated for an additional 48 hr at 37° C. Cell viability or cell growth end-point determinations were performed by fixation of the cells, followed by staining with sulforhodamine B (Monks et al, J. Natl. Cancer Inst., 83:757-766 (1991)).

U251 cells = experiment: as above; details: Homo sapiens, U-251, 48 hr, read-out: log10 G150 (converted)
Description: as §1, §2

SF-268 cells = experiment: as above; details: Homo sapiens; SF-268, CNS cancer, 48 hr; read-out: log10 G150 (converted)
Description: as §1, §2

SF-295 cells = experiment: as above; details: Homo sapiens; SF-295, CNS cancer, 48 hr; read-out: log10 G150 (converted)
Description: as §1, §2

SNB-19 cells = experiment: as above; details: Homo sapiens; SNB-19, CNS cancer, 48 hr; read-out: log10 G150 (converted)
Description: as §1, §2

SNB-75 cells = experiment: as above; details: Homo sapiens; SNB-75, CNS cancer, 48 hr; read-out: log10 G150 (converted)
Description: as §1, §2

CCRF-CEN cells = experiment: In vitro cytotoxicity / cell growth inhibition, leukemia; details: Homo sapiens, 48 hr, read-out: log10 G150 (converted)
Description: as §1, §2

MOLT-4 cells = experiment: as above; details: Homo sapiens; MOLT-4, leukemia, 48 hr; read-out: log10 G150 (converted)
Description: as §1, §2

SR cells = experiment: as above; details: Homo sapiens, 48 hr, read-out: log10 G150 (converted)
Description: as §1, §2

RPMI-8226 cells = experiment: as above; details: Homo sapiens; RPMI-8226, leukemia, 48 hr; read-out: log10 G150 (converted)
Description: as §1, §2

K-562 cells = experiment: as above; details: Homo sapiens, K562; K-562, leukemia, 48 hr; read-out: log10 G150 (converted)
Description: as §1, §2

RXF-393 cells = experiment: In vitro cytotoxicity / cell growth inhibition, renal cancer; details: Homo sapiens; RXF-393, renal cancer, 48 hr; read-out: log10 G150 (converted)
Description: as §1, §2

ACHN cells = experiment: as above; details: Homo sapiens, 48 hr, read-out: log10 G150 (converted)
Description: as §1, §2

TK-10 cells = experiment: as above; details: Homo sapiens; TK-10, renal cancer, 48 hr; read-out: log10 G150 (converted)
Description: as §1, §2

A498 cells = experiment: as above; details: Homo sapiens, 48 hr, read-out: log10 G150 (converted)
Description: as §1, §2

SN12C cells = experiment: as above; details: Homo sapiens, 48 hr, read-out: log10 G150 (converted)
Description: as §1, §2

786-0 cells = experiment: as above; details: Homo sapiens; 786-0, renal cancer, 48 hr; read-out: log10 G150 (converted)
Description: as §1, §2

UO-31 cells = experiment: as above; details: Homo sapiens; UO-31, renal cancer, 48 hr; read-out: log10 G150 (converted)
Description: as §1, §2

CAKI-1 cells = experiment: as above; details: Homo sapiens; CAKI-1, renal cancer, 48 hr; read-out: log10 G150 (converted)
Description: as §1, §2

C(CCNCCCN1CC1)CNCCCN1CC1 [Synthesis Example 1, 1,12-Diaziridinyl-4,9-diazadodecane]
GI50 (SF-539 cells): 37.2 nM
GI50 (U251 cells): 417 nM
GI50 (SF-268 cells): 148 nM
GI50 (SF-295 cells): 155 nM
GI50 (SNB-19 cells): 1120 nM
GI50 (SNB-75 cells): 27.5 nM
GI50 (CCRF-CEN cells): 63.1 nM
GI50 (MOLT-4 cells): 44.7 nM
GI50 (SR cells): 18.2 nM
GI50 (RPMI-8226 cells): 5.13 µM
GI50 (K-562 cells): 4.37 µM
GI50 (RXF-393 cells): 138 nM
GI50 (ACHN cells): 141 nM
GI50 (TK-10 cells): 3.24 µM
GI50 (A498 cells): 1820 nM
GI50 (SN12C cells): 135 nM
GI50 (786-0 cells): 11.2 nM
GI50 (UO-31 cells): 575 nM
GI50 (CAKI-1 cells): 18.6 nM
